Stability and solubility data for two compounds are collected here from ChEMBL document CHEMBL4419177, “Crystalline forms of a lysyl oxidase-like 2 inhibitor and methods of making” (2018).

Each structure is given as a SMILES string.

Type in all cases: physicochemical
Data set [1] in a line: Stability of the compound as a solid form exposed to light (max 365 nm) incubated for 24 hrs by HPLC analysis.
Data set [2] in a line: Stability of the compound as a solid form exposed to heat at 100 degC incubated for 24 hrs by HPLC analysis.
Data set [3] in a line: Stability of the compound as a solid form exposed to heat at 50 degC incubated for 24 hrs by HPLC analysis.
A short description of data set [4]: Stability under 1-year ICH study conditions assessed as chemical or physical changes. Conditions: 8766 h.
The nature of data set [5]: Stability under 2-year ICH study conditions assessed as chemical or physical changes. Conditions: 17532 h.
Data set [6] can be described thus: Solubility of compound ( form 1 ) in 10 uL water at 10 mg. Conditions: buffer.
The nature of data set [7]: Stability under 3 month accelerated condition (40 degC/75% RH ) assessed as changes in purity or absorption of moisture. Conditions: 2191.5 h.
Data set [8] in a line: Solubility of compound ( form 1 ) in 150 uL water at 30 mg. Conditions: buffer.

With `CS(=O)(=O)O.NCc1cc(Oc2cccc(C(=O)N3C[C@@H](O)[C@H](F)C3)c2)nc(C(F)(F)F)c1`, the Stability entry in data set [1], in data set [2], in data set [3], in data set [4] and in data set [5] was “Stable” in each case.

On to `Cl.NCc1cc(Oc2cccc(C(=O)N3C[C@@H](O)[C@H](F)C3)c2)nc(C(F)(F)F)c1`, for which the solubility entry in data set [6] and in data set [8] was “Soluble” each time. In data set [7], the Stability result is on record as “Stable”.
